Laboratory results published in ChEMBL document CHEMBL3885861, “Open TG-GATES”.

Species: Rattus norvegicus
Experiment: Open TG-GATES - Regimen: Single
Assay type: toxicity, organism-based, Sprague-Dawley
Set-up: regimen Single, gender Male, age 6 weeks
Conditions: in vivo, po, route gavage; for TP / gamma-GTP / ALP / AST / CRE / DBIL / IP / K / LDH / Na / RALB / TBIL / TC / TG / ALT: tissue Plasma; for Bas / Eos / Fbg / Hb / Lym / MCH / MCHC / MCV / Mono / Neu / PT / RBC / Ret / APTT / WBC / Ht: tissue Blood; for KIDNEY_L / KIDNEY_R / KIDNEY_TOTAL: tissue Kidney
[1] = 30 mg/kg, 3 h, dose level Middle
[2] = 30 mg/kg, 6 h, dose level Middle
[3] = 30 mg/kg, 9 h, dose level Middle
[4] = 30 mg/kg, 24 h, dose level Middle
[5] = 100 mg/kg, 3 h, dose level High
[6] = 100 mg/kg, 6 h, dose level High
[7] = 100 mg/kg, 9 h, dose level High
[8] = 100 mg/kg, 24 h, dose level High

With `Cc1cnc(NC(=O)C2=C(O)c3ccccc3S(=O)(=O)N2C)s1` [MELOXICAM] the TP (10 mg/kg, 24 h, dose level Low) was 5.4 g/dL, the gamma-GTP (10 mg/kg, 24 h, dose level Low) was 1 IU/L and the TERMINAL_BW [1] was 226 g. The Bas [1] was 1%, the Eos [1] was 0.8% and the Fbg [1] was 212 mg/dL. For the same compound, the Hb [1] was 13.3 g/dL, the Lym [1] was 79.6% and the MCH [1] was 21 pg. For the same compound, the MCHC [1] was 33.5%, the MCV [1] was 62.7 fL and the Mono [1] was 2.4%. For the same compound, the Neu [1] was 16.4%, the PT [1] was 12 s and the RBC [1] was 636.4 x10_4/ul. For the same compound, the Ret [1] was 7%, the KIDNEY_L [1] was 1 g and the KIDNEY_R [1] was 1 g. The KIDNEY_TOTAL [1] was 2.1 g, the ALP [1] was 811 IU/L and the AST [1] was 65.6 IU/L. The CRE [1] was 0.4 mg/dL, the DBIL [1] was 0.07 mg/dL and the IP [1] was 8.4 mg/dL. It also gave a K [1] of 4.1 meq/L, an LDH [1] of 177.8 IU/L and a Na [1] of 140.6 meq/L. For the same compound, the RALB [1] was 3.2 g/dL, the TBIL [1] was 0.1 mg/dL and the TC [1] was 66 mg/dL. It also gave a TG [1] of 66 mg/dL, a TP [1] of 5.3 g/dL and a gamma-GTP [1] of 0.8 IU/L. For the same compound, the TERMINAL_BW [2] was 222.4 g, the Bas [2] was 0.6% and the Eos [2] was 0.8%. For the same compound, the Fbg [2] was 221.6 mg/dL, the Lym [2] was 73.6% and the MCH [2] was 21.8 pg. For the same compound, the MCHC [2] was 33.9%, the MCV [2] was 64.3 fL and the Mono [2] was 3.4%. For the same compound, the Neu [2] was 21.4%, the RBC [2] was 632.8 x10_4/ul and the Ret [2] was 7.2%. The KIDNEY_L [2] was 1 g, the KIDNEY_R [2] was 0.9 g and the KIDNEY_TOTAL [2] was 1.9 g. The ALP [2] was 775.2 IU/L, the ALT [2] was 36.2 IU/L and the AST [2] was 68.6 IU/L. For the same compound, the CRE [2] was 0.4 mg/dL, the DBIL [2] was 0.062 mg/dL and the IP [2] was 9.3 mg/dL. It also gave a K [2] of 3.8 meq/L, an LDH [2] of 163.2 IU/L and a Na [2] of 141.2 meq/L. It also gave an RALB [2] of 3.4 g/dL, a TBIL [2] of 0.1 mg/dL and a TC [2] of 70.4 mg/dL. It also gave a TG [2] of 61.6 mg/dL, a TP [2] of 5.5 g/dL and a gamma-GTP [2] of 1 IU/L. For the same compound, the TERMINAL_BW [3] was 222 g, the APTT [3] was 17.1 s and the Bas [3] was 0.4%. The Eos [3] was 0.8%, the Fbg [3] was 235 mg/dL and the Hb [3] was 13.3 g/dL. It also gave a Lym [3] of 72%, an MCH [3] of 21.8 pg and an MCHC [3] of 34.2%. It also gave an MCV [3] of 63.8 fL, a Mono [3] of 3.8% and a Neu [3] of 22.2%. The PT [3] was 12.5 s, the RBC [3] was 612.6 x10_4/ul and the Ret [3] was 7%. It also gave a WBC [3] of 110.9 x10_2/uL, a KIDNEY_L [3] of 1 g and a KIDNEY_R [3] of 1 g. The KIDNEY_TOTAL [3] was 2 g, the ALP [3] was 861.8 IU/L and the ALT [3] was 34 IU/L. For the same compound, the AST [3] was 62.8 IU/L, the CRE [3] was 0.4 mg/dL and the DBIL [3] was 0.06 mg/dL. It also gave an IP [3] of 9.6 mg/dL, a K [3] of 4.1 meq/L and an LDH [3] of 170.2 IU/L. For the same compound, the Na [3] was 141.8 meq/L, the RALB [3] was 3.2 g/dL and the TBIL [3] was 0.1 mg/dL. For the same compound, the TC [3] was 64 mg/dL, the TG [3] was 44.4 mg/dL and the TP [3] was 5.3 g/dL. For the same compound, the gamma-GTP [3] was 1 IU/L, the TERMINAL_BW [4] was 240.1 g and the Bas [4] was 0.6%. It also gave an Eos [4] of 0.8%, a Fbg [4] of 243.4 mg/dL and a Lym [4] of 68%. For the same compound, the MCH [4] was 21.8 pg, the MCHC [4] was 33.7% and the MCV [4] was 64.6 fL. The Mono [4] was 3.8%, the Neu [4] was 26.4% and the PT [4] was 11.6 s. It also gave an RBC [4] of 609 x10_4/ul, a Ret [4] of 6.8% and a WBC [4] of 132.5 x10_2/uL. For the same compound, the KIDNEY_L [4] was 1.1 g, the KIDNEY_R [4] was 1.1 g and the KIDNEY_TOTAL [4] was 2.1 g. It also gave an ALT [4] of 38.4 IU/L, an AST [4] of 69.6 IU/L and a CRE [4] of 0.4 mg/dL. It also gave a DBIL [4] of 0.098 mg/dL, an IP [4] of 7.8 mg/dL and a K [4] of 3.9 meq/L. It also gave an LDH [4] of 207 IU/L, a Na [4] of 142.8 meq/L and an RALB [4] of 3.3 g/dL. It also gave a TBIL [4] of 0.2 mg/dL, a TC [4] of 72.2 mg/dL and a TG [4] of 108 mg/dL. It also gave a TP [4] of 5.4 g/dL, a gamma-GTP [4] of 1 IU/L and a TERMINAL_BW [5] of 226.7 g. For the same compound, the Bas [5] was 1%, the Eos [5] was 1.4% and the Fbg [5] was 222.4 mg/dL. The Lym [5] was 75.6%, the MCH [5] was 21.7 pg and the MCHC [5] was 34%. It also gave an MCV [5] of 63.9 fL, a Mono [5] of 3.6% and a Neu [5] of 18.6%. For the same compound, the PT [5] was 11.8 s, the RBC [5] was 624.4 x10_4/ul and the Ret [5] was 7.1%. It also gave a WBC [5] of 99 x10_2/uL, a KIDNEY_L [5] of 1 g and a KIDNEY_R [5] of 1 g. For the same compound, the KIDNEY_TOTAL [5] was 2 g, the ALP [5] was 883 IU/L and the ALT [5] was 37.2 IU/L. It also gave an AST [5] of 68.2 IU/L, a CRE [5] of 0.4 mg/dL and a DBIL [5] of 0.078 mg/dL. For the same compound, the IP [5] was 8.9 mg/dL, the K [5] was 4 meq/L and the LDH [5] was 187.4 IU/L. The Na [5] was 140.6 meq/L, the RALB [5] was 3.4 g/dL and the TBIL [5] was 0.1 mg/dL. For the same compound, the TC [5] was 74.2 mg/dL, the TG [5] was 74.4 mg/dL and the TP [5] was 5.4 g/dL. The gamma-GTP [5] was 0.8 IU/L, the TERMINAL_BW [6] was 223.6 g and the Bas [6] was 0.4%. The Eos [6] was 1%, the Fbg [6] was 211.6 mg/dL and the Hb [6] was 13.3 g/dL. It also gave a Lym [6] of 73.4%, an MCH [6] of 21.1 pg and an MCHC [6] of 34%. It also gave an MCV [6] of 61.9 fL, a Mono [6] of 3.2% and a Neu [6] of 22.4%. It also gave a PT [6] of 12.1 s, an RBC [6] of 631.4 x10_4/ul and a Ret [6] of 6.7%. It also gave a WBC [6] of 88.1 x10_2/uL, a KIDNEY_L [6] of 1 g and a KIDNEY_R [6] of 1 g. It also gave a KIDNEY_TOTAL [6] of 2 g, an ALP [6] of 723.4 IU/L and an ALT [6] of 37.4 IU/L. The AST [6] was 68 IU/L, the CRE [6] was 0.3 mg/dL and the DBIL [6] was 0.068 mg/dL. For the same compound, the IP [6] was 9.5 mg/dL, the K [6] was 4.1 meq/L and the LDH [6] was 160.4 IU/L. For the same compound, the Na [6] was 140.4 meq/L, the RALB [6] was 3.3 g/dL and the TBIL [6] was 0.1 mg/dL. For the same compound, the TC [6] was 67.6 mg/dL, the TG [6] was 43 mg/dL and the TP [6] was 5.3 g/dL. For the same compound, the gamma-GTP [6] was 1 IU/L, the TERMINAL_BW [7] was 223.1 g and the APTT [7] was 17.8 s. It also gave a Bas [7] of 0.4%, an Eos [7] of 1% and a Fbg [7] of 222.6 mg/dL. The Hb [7] was 13.3 g/dL, the Ht [7] was 38.4% and the Lym [7] was 65.6%. The MCH [7] was 21.9 pg, the MCHC [7] was 34.5% and the MCV [7] was 63.6 fL. For the same compound, the Mono [7] was 4%, the Neu [7] was 28.8% and the RBC [7] was 605 x10_4/ul. It also gave a Ret [7] of 7.1%, a KIDNEY_L [7] of 1 g and a KIDNEY_R [7] of 1 g. It also gave a KIDNEY_TOTAL [7] of 2 g, an ALP [7] of 759 IU/L and an ALT [7] of 27.4 IU/L. It also gave an AST [7] of 61 IU/L, a CRE [7] of 0.4 mg/dL and a DBIL [7] of 0.06 mg/dL. It also gave an IP [7] of 9.6 mg/dL, a K [7] of 4.3 meq/L and an LDH [7] of 166 IU/L. It also gave a Na [7] of 141.4 meq/L, an RALB [7] of 3.2 g/dL and a TBIL [7] of 0.1 mg/dL. For the same compound, the TC [7] was 62 mg/dL, the TG [7] was 23.2 mg/dL and the TP [7] was 5.3 g/dL. It also gave a gamma-GTP [7] of 1 IU/L, a TERMINAL_BW [8] of 227.5 g and a Bas [8] of 0.2%. It also gave an Eos [8] of 0.8%, a Fbg [8] of 300.8 mg/dL and a Hb [8] of 9.5 g/dL. The Ht [8] was 28.5%, the Lym [8] was 67.4% and the MCH [8] was 20.9 pg. The MCHC [8] was 33.2%, the MCV [8] was 62.8 fL and the Mono [8] was 2.8%. For the same compound, the PT [8] was 11.8 s, the RBC [8] was 453.8 x10_4/ul and the Ret [8] was 8.4%. The KIDNEY_L [8] was 1.1 g, the KIDNEY_R [8] was 1.1 g and the KIDNEY_TOTAL [8] was 2.1 g. The ALP [8] was 504.8 IU/L, the ALT [8] was 26.2 IU/L and the AST [8] was 51.8 IU/L. It also gave a CRE [8] of 0.4 mg/dL, a DBIL [8] of 0.056 mg/dL and an IP [8] of 9.8 mg/dL. It also gave a K [8] of 4.3 meq/L, an LDH [8] of 159.4 IU/L and a Na [8] of 141.2 meq/L. For the same compound, the RALB [8] was 2.2 g/dL, the TBIL [8] was 0.1 mg/dL and the TC [8] was 58.6 mg/dL. The TG [8] was 69.2 mg/dL, the TP [8] was 3.9 g/dL and the gamma-GTP [8] was 1 IU/L.
